Measurements: the supplement of paper PMC10627819

Columns and labels:
[1] = system: B. subtilis 168; assay: fitness (endpoint OD595 vs no drug) (fraction); higher = more growth
Method in brief: (§1)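 In 384-well plates at 37 °C, cultures began at OD595 0.01 in 30 µl, with 55 µl used for S. pneumoniae. OD595 readings every 30 min for 14 h were corrected by the first reading. Fitness divides the stationary-phase transition optical density by the robust mean of no-drug control wells. The result is capped at 1.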

[2] = system: S. pneumoniae D39V; assay: as above
Method in brief: as §1

[3] = system: B. subtilis 168; assay: Bliss interaction score (quartile over a dose matrix) (fitness difference); higher = more antagonism (negative = synergy)
Method in brief: (§2)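 Growth was read as OD595 when cultures entered stationary phase, and each value was divided by the plate's robust no-drug mean and capped at 1. This normalised ratio is the fitness value, and fitness for each single drug came from the combination data. The Bliss score subtracts the expected fitness, taken as the product, from the observed fitness and is given as quartiles across technical, biological and donor/recipient replicates.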

[4] = system: S. aureus Newman; assay: as above
Method in brief: as §2

[5] = system: S. aureus DSM 20231; assay: as above
Method in brief: as §2

[6] = system: S. pneumoniae D39V; assay: as above
Method in brief: as §2
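Wherever Bliss interaction score (quartile over a dose matrix) is given: first quartile when negative (synergy) and third quartile when positive (antagonism).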
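Wherever fitness (endpoint OD595 vs no drug) is given: OD595 on entry to stationary phase over no-drug wells; at most 1.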

C[C@H]1COc2c(N3CCN(C)CC3)c(F)cc3c(=O)c(C(=O)O)cn1c23 [Levofloxacin] + COc1ccc(C[C@H](N)C(=O)N[C@H]2[C@@H](O)[C@H](n3cnc4c(N(C)C)ncnc43)O[C@@H]2CO)cc1 [Puromycin]
fitness, one replicate
Details | first compound 0.001 µg/mL | first compound 0.002 µg/mL | first compound 0.0039 µg/mL | first compound 0.2 µg/mL | first compound 0.4 µg/mL | first compound 0.8 µg/mL
[1], partner 0.39 µg/mL | 0.961 | 0.909 | 0.834 | – | – | –
[1], partner 0.78 µg/mL | 0.949 | 0.967 | 0.884 | – | – | –
[1], partner 1.56 µg/mL | 0.934 | 0.909 | 0.868 | – | – | –
[2], partner 1 µg/mL | – | – | – | 0.828 | 0.672 | 0.288
[2], partner 2 µg/mL | – | – | – | 0.854 | 0.741 | 0.309
[2], partner 4 µg/mL | – | – | – | 0.777 | 0.628 | 0.205

fitness
Details | first compound 0.0312 µg/mL | first compound 0.0625 µg/mL | first compound 0.125 µg/mL | first compound 0.1725 µg/mL | first compound 0.345 µg/mL | first compound 0.69 µg/mL
[1], partner 0.39 µg/mL | 0.0269 | 0.0447 | 0.0177 | – | – | –
[1], partner 0.78 µg/mL | 0.0422 | 0.0467 | 0.0355 | – | – | –
[1], partner 1.56 µg/mL | 0.0415 | 0.0483 | 0.0409 | – | – | –
[2], partner 1 µg/mL | – | – | – | 0.981 | 0.919 | 0.689
[2], partner 2 µg/mL | – | – | – | 0.944 | 0.895 | 0.661
[2], partner 4 µg/mL | – | – | – | 0.796 | 0.8 | 0.599

Details | Bliss interaction score
[3] | -0.0129
[4] | -0.0822
[5] | -0.0463
[6] | 0.0705

C[C@H]1COc2c(N3CCN(C)CC3)c(F)cc3c(=O)c(C(=O)O)cn1c23 [Levofloxacin] + C[n+]1ccc(-c2cc[n+](C)cc2)cc1 [Paraquat]
fitness, one replicate
Details | first compound 0.001 µg/mL | first compound 0.002 µg/mL | first compound 0.0039 µg/mL | first compound 0.2 µg/mL | first compound 0.4 µg/mL | first compound 0.8 µg/mL
[1], partner 1.25 µg/mL | 0.91 | 0.941 | 0.829 | – | – | –
[1], partner 2.5 µg/mL | 0.966 | 0.876 | 0.823 | – | – | –
[1], partner 5 µg/mL | 0.889 | 0.778 | 0.766 | – | – | –
[2], partner 1.5 µg/mL | – | – | – | 0.966 | 0.911 | 0.615
[2], partner 3 µg/mL | – | – | – | 0.983 | 0.939 | 0.684
[2], partner 6 µg/mL | – | – | – | 0.994 | 0.952 | 0.696

fitness
Details | first compound 0.0312 µg/mL | first compound 0.0625 µg/mL | first compound 0.125 µg/mL | first compound 0.1725 µg/mL | first compound 0.345 µg/mL | first compound 0.69 µg/mL
[1], partner 1.25 µg/mL | 0.0392 | 0.0443 | 0.0452 | – | – | –
[1], partner 2.5 µg/mL | 0.0272 | 0.0296 | 0.0268 | – | – | –
[1], partner 5 µg/mL | 0.0508 | 0.0462 | 0.0464 | – | – | –
[2], partner 1.5 µg/mL | – | – | – | 0.977 | 0.91 | 0.602
[2], partner 3 µg/mL | – | – | – | 0.974 | 0.919 | 0.647
[2], partner 6 µg/mL | – | – | – | 0.972 | 0.849 | 0.569

Details | Bliss interaction score
[3] | -0.0255
[4] | -0.0586
[5] | -0.0517
[6] | 0.0861

C[C@H]1COc2c(N3CCN(C)CC3)c(F)cc3c(=O)c(C(=O)O)cn1c23 [Levofloxacin] + Cc1cc(NS(=O)(=O)c2ccc(N)cc2)no1 [Sulfamethoxazol]
fitness, one replicate
Details | partner 0.5 µg/mL | partner 1 µg/mL | partner 2 µg/mL | partner 4 µg/mL
[1], first compound 0.001 µg/mL | – | 0.98 | 0.98 | 0.929
[1], first compound 0.002 µg/mL | 0.955 | – | – | 0.885
[1], first compound 0.0039 µg/mL | 0.939 | – | – | 0.834
[1], first compound 0.0078 µg/mL | 0.862 | 0.782 | 0.788 | –
[2], first compound 0.2 µg/mL | – | 0.955 | 0.902 | 0.841
[2], first compound 0.4 µg/mL | – | 0.854 | 0.87 | 0.771
[2], first compound 0.8 µg/mL | – | 0.373 | 0.495 | 0.487

fitness
Details | partner 1 µg/mL | partner 2 µg/mL | partner 4 µg/mL
[1], first compound 0.002 µg/mL | 0.867 | 0.881 | –
[1], first compound 0.0039 µg/mL | 0.831 | 0.841 | –
[1], first compound 0.0312 µg/mL | 0.0318 | 0.0375 | 0.0268
[1], first compound 0.0625 µg/mL | 0.0358 | 0.0467 | 0.0289
[1], first compound 0.125 µg/mL | 0.0382 | 0.0353 | 0.0242
[2], first compound 0.1725 µg/mL | 0.935 | 0.972 | 0.967
[2], first compound 0.345 µg/mL | 0.824 | 0.827 | 0.833
[2], first compound 0.69 µg/mL | 0.455 | 0.461 | 0.498

Details | Bliss interaction score
[3] | -0.0263
[4] | 0.0779
[5] | -0.125
[6] | -0.0634
